Results published in US4087540A, “Octahydro-N-[(trichloromethyl)thio]-naphthalenedicarboximides” (Sterling Drug Inc., priority 1977, dated 1978).

Columns and labels:
fungus [1] = experiment: fungicidal activity (general); conditions: for fungicidal activity: in words
Excerpt: (§1) In order to find a fungicide with high solubility in petroleum hydrocarbons, numerous N-trichloromethylthio compounds have been synthesized and tested for activity and solubility. […] Rather, activity is associated with certain structural features.

blue discoloration = conditions: E. Hoffman and A. Saracz; cited from earlier work
[2] = format: physicochemical; conditions: in words
Excerpt: as §1

[3] = solubility in mineral spirits; format: physicochemical; conditions: VIII (Z=N--S--CCl3) vs IC
Excerpt: (§2) These properties appear to be associated with the octahydronaphthalene structure of the compounds. Thus when the anhydride VIII (Z=O) was converted to the corresponding N-[(trichloromethyl)thio]-imide (VIII, Z=N--S--CCl3) the surprising observation was made that the cyclized compound IC has about five times the fungicidal activity, and against staphylococcus aureus about 100 times the activity, of the uncyclized compound VIII (Z=N--S--CCl3) and that the latter compound had only one-fifth the solubility of compound IC. The solubility data and minimum inhibitory concentration against several microorganisms for these two compounds as well as the known fungicide Captan are presented in the following table.

Saccharomyces cerevisiac = experiment: minimum inhibitory concentration against Saccharomyces cerevisiac; format: cell-based; conditions: microorganism 6, Saccharomyces cerevisiac
Excerpt: as §2

Penicillium glaucum = experiment: minimum inhibitory concentration against Penicillium glaucum; format: cell-based; conditions: microorganism 2, Penicillium glaucum
Excerpt: as §2

Aspergillus niger = experiment: minimum inhibitory concentration against Aspergillus niger; format: cell-based; conditions: microorganism 3, Aspergillus niger
Excerpt: as §2

Staphylococcus aureus = experiment: minimum inhibitory concentration against Staphylococcus aureus; format: cell-based; conditions: for Minimum Inhibitory Concentration (%): microorganism 1, Staphylococcus aureus
Excerpt: as §2

Sclerophoma pityophila = experiment: minimum inhibitory concentration against Sclerophoma pityophila; format: cell-based; conditions: microorganism 4, Sclerophoma pityophila
Excerpt: as §2

Pullularia pullulans = experiment: minimum inhibitory concentration against Pullularia pullulans; format: cell-based; conditions: microorganism 5, Pullularia pullulans
Excerpt: as §2

Candida albicans = experiment: minimum inhibitory concentration against Candida albicans; format: cell-based; conditions: microorganism 7, Candida albicans
Excerpt: as §2

fungus [4] = conditions: cited from earlier work; for properties as fungicidal additives to paints: Fette, Seifen, Anstrichmittel 1966
[5] = cited from earlier work
[6] = B. A. Richardson; cited from earlier work

SMILES: CCCCCCCCCCCCCCCCC1CC(=O)N(SC(Cl)(Cl)Cl)C1=O (centres unmarked)
- fungicidal activity (fungus [1]): inactive

SMILES: O=C1c2ccccc2C(=O)N1SC(Cl)(Cl)Cl [III]
- sufficiency of 1% to prevent blue discoloration (blue discoloration): insufficient to prevent blue discoloration

SMILES: CC1=C2CCC(C)CC2C2C(=O)N(SC(Cl)(Cl)Cl)C(=O)C2C1 (centres unmarked) [IA, 1,2,3,5,6,7,8,8a-octahydro-4,7-dimethyl-N-[(trichloromethyl)-thio]-1,2-naphthalenedicarboximide]
- fungicidal activity (fungus [1]): excellent fungicidal activity
- solubility in petroleum hydrocarbons [2]: good solubility in petroleum hydrocarbons

SMILES: CC(C)=CCCC1=CCC2C(=O)N(SC(Cl)(Cl)Cl)C(=O)C2C1 (centres unmarked) [VIII]
- solubility relative to compound IC [3]: one-fifth
- Minimum Inhibitory Concentration (%) (Saccharomyces cerevisiac): 0.005%
- Minimum Inhibitory Concentration (%) (Penicillium glaucum): 0.005%
- Minimum Inhibitory Concentration (%) (Aspergillus niger): 0.01%
- Minimum Inhibitory Concentration (%) (Staphylococcus aureus): 1%
- Minimum Inhibitory Concentration (%) (Sclerophoma pityophila): 0.005%
- Minimum Inhibitory Concentration (%) (Pullularia pullulans): 0.005%
- Minimum Inhibitory Concentration (%) (Candida albicans): 0.01%

SMILES: O=C1Cc2ccccc2C(=O)N1SC(Cl)(Cl)Cl
- fungicidal activity (fungus [1]): inactive

SMILES: CC1(C)CCCC2=C1CC1C(=O)N(SC(Cl)(Cl)Cl)C(=O)C1C2 (centres unmarked) [IC, 1,2,3,4,5,6,7,8-octahydro-5,5-dimethyl-N-[(trichloromethyl)thio]-2,3-naphthalenedicarboximide]
- Minimum Inhibitory Concentration (%) (Saccharomyces cerevisiac): 0.001%
- Minimum Inhibitory Concentration (%) (Penicillium glaucum): 0.001%
- Minimum Inhibitory Concentration (%) (Aspergillus niger): 0.01%
- fungicidal activity relative to uncyclized compound VIII (Z=N--S--CCl3) (fungus [1]; IC vs VIII): about five
- fungicidal activity (fungus [1]): excellent fungicidal activity
- activity against staphylococcus aureus relative to uncyclized compound VIII (Z=N--S--CCl3) (Staphylococcus aureus; IC vs VIII): about 100 times
- Minimum Inhibitory Concentration (%) (Staphylococcus aureus): 0.01%
- Minimum Inhibitory Concentration (%) (Sclerophoma pityophila): 0.001%
- Minimum Inhibitory Concentration (%) (Pullularia pullulans): 0.001%
- solubility in petroleum hydrocarbons [2]: good solubility in petroleum hydrocarbons
- Minimum Inhibitory Concentration (%) (Candida albicans): 0.001%

SMILES: CC1(C)C2CC3C(=CCC4C(=O)N(SC(Cl)(Cl)Cl)C(=O)C43)C1C2 (centres unmarked) [IB, 1,2,3,4,4a,5,6,7-octahydro-2,2-dimethyl-N-[(trichloromethyl)thio]-1,3-methanonaphthalene-5,6-dicarboximide]
- fungicidal activity (fungus [1]): excellent fungicidal activity
- solubility in petroleum hydrocarbons [2]: good solubility in petroleum hydrocarbons

SMILES: O=C1C2C3c4ccccc4C(c4ccccc43)C2C(=O)N1SC(Cl)(Cl)Cl (centres unmarked)
- fungicidal activity (fungus [1]): inactive

SMILES: CC12CCC(C(=O)N(SC(Cl)(Cl)Cl)C1=O)C2(C)C (centres unmarked)
- fungicidal activity (fungus [1]): inactive

SMILES: O=C1c2ccccc2C(=O)N1SC(F)(Cl)Cl [V]
- properties as fungicidal additives to paints (fungus [4]): useful properties

SMILES: O=C1C2CCCCC2C(=O)N1SC(Cl)(Cl)Cl (centres unmarked) [IV]
- solubility in petroleum ether [5]: 0.3%

SMILES: O=C1C2CC=CCC2C(=O)N1SC(Cl)(Cl)Cl (centres unmarked) [Captan]
- Minimum Inhibitory Concentration (%) (Penicillium glaucum): 0.01%
- Minimum Inhibitory Concentration (%) (Aspergillus niger): 0.05%
- fungicidal effectiveness in paints (fungus [4]; owing to its low solubility in paints, B. A. Richardson): practically ineffective
- Minimum Inhibitory Concentration (%) (Staphylococcus aureus): 0.05%
- Minimum Inhibitory Concentration (%) (Pullularia pullulans): 0.005%
- Minimum Inhibitory Concentration (%) (Candida albicans): 0.01%
- solubility in paints [6]: low solubility

SMILES: CN(C)S(=O)(=O)N(SC(F)(Cl)Cl)c1ccccc1 [VI]
- properties as fungicidal additives to paints (fungus [4]): useful properties
